The target of assay [1] is Serine/threonine-protein kinase 26 (Homo sapiens) (UniProt Q9P289). In words: Inhibition of recombinant GST-tagged human MST4 expressed in baculovirus at 1 uM by FRET assay relative to control.
Another assay relates to Mus musculus. Put plainly: Down regulation of phosphorylated MKK4 level in cortical lysate of PS2APP mouse model at 15 to 50 mg/kg, po administered as single dose after 6 hrs by Western blot analysis. In kind it is functional, organism-based.
Assay [2] concerns the target Protein kinase C zeta type (Homo sapiens) (UniProt Q05513). Put plainly: Inhibition of PKCzeta (unknown origin) at 1 uM by FRET assay relative to control.
Assay [3] addresses Tyrosine-protein kinase receptor UFO (Homo sapiens, UniProt P30530). Put plainly: Inhibition of recombinant His-tagged human AXL (473 to end residues) cytoplasmic domain expressed in insect cells by FRET assay.
For assay [4], the target named is Phosphatidylinositol 4,5-bisphosphate 3-kinase catalytic subunit gamma isoform (Homo sapiens) (UniProt P48736). Put plainly: Inhibition of recombinant full length His-tagged human PI3KG at 1 uM by FRET assay relative to control.

We go through two compounds from ChEMBL document CHEMBL4118097, “Selective Inhibitors of Dual Leucine Zipper Kinase (DLK, MAP3K12) with Activity in a Model of Alzheimer's Disease” (J Med Chem, 2017).

What is called inhibition is the change of the read-out against control, counted positive when it falls. Usually IC50 stands for the concentration needed to halve the response being measured.

Active and inactive are the calls of the source. The rule behind the calls is not given here.

Sequence of Phosphatidylinositol 4,5-bisphosphate 3-kinase catalytic subunit gamma isoform (Homo sapiens) (P48736 whole entry, looked up, canonical isoform): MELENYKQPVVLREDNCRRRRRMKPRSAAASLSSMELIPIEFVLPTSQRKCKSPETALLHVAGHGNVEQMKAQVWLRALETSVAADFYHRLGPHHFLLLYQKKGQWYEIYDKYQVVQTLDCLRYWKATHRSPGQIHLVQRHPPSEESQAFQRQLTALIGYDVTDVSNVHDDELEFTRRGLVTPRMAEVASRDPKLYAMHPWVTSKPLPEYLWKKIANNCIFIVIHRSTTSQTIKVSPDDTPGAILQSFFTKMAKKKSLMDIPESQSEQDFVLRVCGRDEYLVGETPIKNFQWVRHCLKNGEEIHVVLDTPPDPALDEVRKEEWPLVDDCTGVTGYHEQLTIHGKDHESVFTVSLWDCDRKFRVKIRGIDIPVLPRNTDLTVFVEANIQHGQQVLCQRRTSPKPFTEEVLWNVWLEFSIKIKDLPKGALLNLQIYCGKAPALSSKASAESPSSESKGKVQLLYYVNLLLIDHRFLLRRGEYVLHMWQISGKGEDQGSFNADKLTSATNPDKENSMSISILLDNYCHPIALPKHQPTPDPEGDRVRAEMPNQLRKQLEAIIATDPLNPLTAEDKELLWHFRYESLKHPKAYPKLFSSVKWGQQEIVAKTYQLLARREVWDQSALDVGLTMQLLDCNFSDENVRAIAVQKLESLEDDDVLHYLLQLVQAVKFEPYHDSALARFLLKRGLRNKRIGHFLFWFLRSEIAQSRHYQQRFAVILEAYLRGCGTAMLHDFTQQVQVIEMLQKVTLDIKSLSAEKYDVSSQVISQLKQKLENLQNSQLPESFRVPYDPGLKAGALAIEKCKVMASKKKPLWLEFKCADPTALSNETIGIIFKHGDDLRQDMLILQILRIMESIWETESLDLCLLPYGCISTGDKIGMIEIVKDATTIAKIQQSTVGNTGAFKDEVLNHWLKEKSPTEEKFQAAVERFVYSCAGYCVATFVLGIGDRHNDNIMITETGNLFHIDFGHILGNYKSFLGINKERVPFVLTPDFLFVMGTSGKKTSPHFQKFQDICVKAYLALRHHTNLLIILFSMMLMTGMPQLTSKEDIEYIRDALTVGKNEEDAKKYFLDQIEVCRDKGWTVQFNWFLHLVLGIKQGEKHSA
Sequence of Tyrosine-protein kinase receptor UFO (P30530 whole entry, the tested form may be a part, canonical isoform): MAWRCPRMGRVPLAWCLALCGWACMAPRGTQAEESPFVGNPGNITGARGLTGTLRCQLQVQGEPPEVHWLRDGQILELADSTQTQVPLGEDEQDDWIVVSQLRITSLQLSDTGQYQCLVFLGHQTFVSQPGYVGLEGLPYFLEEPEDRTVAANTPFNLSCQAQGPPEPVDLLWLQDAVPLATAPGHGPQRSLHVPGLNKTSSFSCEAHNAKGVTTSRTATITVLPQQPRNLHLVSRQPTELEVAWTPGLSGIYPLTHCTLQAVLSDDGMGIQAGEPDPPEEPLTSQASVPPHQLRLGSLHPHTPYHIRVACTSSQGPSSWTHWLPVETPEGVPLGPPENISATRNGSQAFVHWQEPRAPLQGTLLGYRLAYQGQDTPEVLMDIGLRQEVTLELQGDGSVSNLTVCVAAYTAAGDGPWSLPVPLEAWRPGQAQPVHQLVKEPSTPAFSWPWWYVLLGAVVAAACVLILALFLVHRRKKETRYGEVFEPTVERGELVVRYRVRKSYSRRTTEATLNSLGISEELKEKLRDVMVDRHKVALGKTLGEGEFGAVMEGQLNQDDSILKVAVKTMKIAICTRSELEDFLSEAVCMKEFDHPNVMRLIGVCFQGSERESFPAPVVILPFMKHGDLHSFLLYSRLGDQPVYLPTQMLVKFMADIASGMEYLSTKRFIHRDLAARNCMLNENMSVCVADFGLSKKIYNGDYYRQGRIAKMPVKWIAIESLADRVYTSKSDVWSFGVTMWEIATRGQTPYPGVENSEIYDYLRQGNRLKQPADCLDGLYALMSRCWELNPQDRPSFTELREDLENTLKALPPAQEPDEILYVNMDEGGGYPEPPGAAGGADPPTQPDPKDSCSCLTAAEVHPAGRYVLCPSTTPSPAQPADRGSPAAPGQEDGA
Sequence of Protein kinase C zeta type (Homo sapiens) (Q05513 whole entry, the tested form may be a part): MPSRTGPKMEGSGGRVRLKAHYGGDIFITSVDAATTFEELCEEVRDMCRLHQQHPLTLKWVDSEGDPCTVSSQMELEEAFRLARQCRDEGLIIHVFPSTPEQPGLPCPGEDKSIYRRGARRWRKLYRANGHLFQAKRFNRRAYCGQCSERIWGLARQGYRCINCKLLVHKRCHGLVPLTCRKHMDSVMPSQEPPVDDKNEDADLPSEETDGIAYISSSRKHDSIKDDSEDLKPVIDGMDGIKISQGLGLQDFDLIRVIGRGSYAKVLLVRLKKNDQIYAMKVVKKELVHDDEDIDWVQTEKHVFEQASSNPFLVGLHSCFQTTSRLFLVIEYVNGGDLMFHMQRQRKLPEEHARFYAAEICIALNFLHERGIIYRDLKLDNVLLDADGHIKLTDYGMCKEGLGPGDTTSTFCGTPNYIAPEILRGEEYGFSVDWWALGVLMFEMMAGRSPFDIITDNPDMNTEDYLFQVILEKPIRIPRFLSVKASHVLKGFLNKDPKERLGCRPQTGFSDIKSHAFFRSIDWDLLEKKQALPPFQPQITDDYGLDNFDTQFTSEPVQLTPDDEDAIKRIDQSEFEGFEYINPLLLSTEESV
Sequence of Serine/threonine-protein kinase 26 (Homo sapiens) (Q9P289 2-416 limits assumed): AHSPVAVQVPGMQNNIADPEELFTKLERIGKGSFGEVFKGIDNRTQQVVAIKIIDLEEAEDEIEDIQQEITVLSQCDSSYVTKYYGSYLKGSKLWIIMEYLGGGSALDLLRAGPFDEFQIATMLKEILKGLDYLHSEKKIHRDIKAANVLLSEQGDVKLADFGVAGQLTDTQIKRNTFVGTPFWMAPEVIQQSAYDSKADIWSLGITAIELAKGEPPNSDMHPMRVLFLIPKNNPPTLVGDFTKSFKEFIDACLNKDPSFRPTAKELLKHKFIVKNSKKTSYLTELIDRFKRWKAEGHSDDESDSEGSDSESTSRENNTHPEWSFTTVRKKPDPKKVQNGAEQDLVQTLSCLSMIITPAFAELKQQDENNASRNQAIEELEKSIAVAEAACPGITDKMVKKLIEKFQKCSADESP

Consider `CC(C)n1nc(-c2cnc(N)c(OC(F)(F)F)c2)cc1[C@H]1[C@@H]2CN(C3COC3)C[C@@H]21`, for which the inhibition in assay [1] was -3.5%; in assay [2], 5.9%. Also, the result with Mus musculus was Active.

For the compound `Nc1ncc(-c2cc([C@H]3[C@@H]4CN(C5COC5)C[C@@H]43)n(CC3CC3)n2)cc1C(F)(F)F`, in assay [3], the IC50 was 448 nM. For the same compound, in assay [4], the inhibition came to 12.4%.
